Laboratory results published in US6001809A, “Inhibitors of leukocyte adhesion” (Elan Pharmaceuticals, Inc., priority 1995, dated 1999).
Bridge positions count the residues as written; N and C are the ends. Square brackets hold non-standard residues; d marks the D form. Ends that are not written are not given here. Peptide text beside a SMILES is read from it. I, II: the chains in the order shown.

What follows are compounds tested against T1, VLA-4 integrin (Homo sapiens, UniProt P05556+P13612) (assay: Adhesion of Jurkat cells to peptide-BSA conjugates). Conditions: peptide conjugated to carrier protein, coated on plastic at 3 μg/mL; FIG. 1.
T1 construct: endogenous in cells; host or cells: Jurkat cells
Format: cell-based
Procedure: The peptide used in this example was synthesized based on the sequence of the anti-α4 integrin antibody 21/6 (CGGEGYYGNYGVYA, SEQ ID No. 1). In this example the peptide was conjugated to a large carrier protein via the linker region that was synthesized as part of the peptide itself (in italics). The conjugated peptide was then coated onto plastic, and the ability of the conjugate to support cell adhesion was tested. This method is based on a report by Wayner and Kovach^40.
As a positive control, the fibronectin peptide described by Wayner was synthesized, conjugated to carrier protein, and tested for cell adhesion in parallel with SEQ ID NO. 1 (CGGEILDVPST, SEQ ID No. 2). Both peptide conjugates were exposed to the plastic at a concentration of 3 μg/mL. […] Adhesion was not affected by an antibody against β2 integrin (IOT18), a distinct cell adhesion molecule that is also expressed on the surface of Jurkat cells. Thus, like peptide SEQ ID NO. 2, peptide SEQ ID NO. 1 interacts with Jurkat in an α4 integrin-specific fashion.

T1 sequence (P13612 34-1032): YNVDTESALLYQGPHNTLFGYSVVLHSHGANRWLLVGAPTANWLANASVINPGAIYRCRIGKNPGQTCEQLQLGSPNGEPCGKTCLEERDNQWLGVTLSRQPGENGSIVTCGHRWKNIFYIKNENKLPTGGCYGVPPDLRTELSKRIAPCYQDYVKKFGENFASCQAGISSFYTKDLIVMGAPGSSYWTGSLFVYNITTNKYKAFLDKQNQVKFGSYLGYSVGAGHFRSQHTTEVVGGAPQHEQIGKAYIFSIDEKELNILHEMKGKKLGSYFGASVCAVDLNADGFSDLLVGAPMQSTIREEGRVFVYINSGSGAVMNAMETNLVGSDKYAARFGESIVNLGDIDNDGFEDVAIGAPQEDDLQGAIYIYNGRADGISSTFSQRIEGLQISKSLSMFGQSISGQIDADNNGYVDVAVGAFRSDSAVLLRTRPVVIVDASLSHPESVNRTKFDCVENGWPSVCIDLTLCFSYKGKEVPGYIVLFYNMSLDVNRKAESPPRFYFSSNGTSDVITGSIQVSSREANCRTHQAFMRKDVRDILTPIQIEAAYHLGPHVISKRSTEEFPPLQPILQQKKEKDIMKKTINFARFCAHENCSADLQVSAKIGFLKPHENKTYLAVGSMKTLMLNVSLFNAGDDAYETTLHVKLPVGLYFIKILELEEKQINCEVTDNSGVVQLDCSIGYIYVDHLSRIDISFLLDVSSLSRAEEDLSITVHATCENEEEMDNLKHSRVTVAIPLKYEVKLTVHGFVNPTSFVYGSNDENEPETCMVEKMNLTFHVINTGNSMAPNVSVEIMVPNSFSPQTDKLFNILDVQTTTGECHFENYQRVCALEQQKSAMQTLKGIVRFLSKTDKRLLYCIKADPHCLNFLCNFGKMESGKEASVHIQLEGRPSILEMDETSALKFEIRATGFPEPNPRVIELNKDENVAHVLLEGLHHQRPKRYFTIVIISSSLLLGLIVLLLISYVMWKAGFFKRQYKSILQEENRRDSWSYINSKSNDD
T1 sequence (P05556 21-798): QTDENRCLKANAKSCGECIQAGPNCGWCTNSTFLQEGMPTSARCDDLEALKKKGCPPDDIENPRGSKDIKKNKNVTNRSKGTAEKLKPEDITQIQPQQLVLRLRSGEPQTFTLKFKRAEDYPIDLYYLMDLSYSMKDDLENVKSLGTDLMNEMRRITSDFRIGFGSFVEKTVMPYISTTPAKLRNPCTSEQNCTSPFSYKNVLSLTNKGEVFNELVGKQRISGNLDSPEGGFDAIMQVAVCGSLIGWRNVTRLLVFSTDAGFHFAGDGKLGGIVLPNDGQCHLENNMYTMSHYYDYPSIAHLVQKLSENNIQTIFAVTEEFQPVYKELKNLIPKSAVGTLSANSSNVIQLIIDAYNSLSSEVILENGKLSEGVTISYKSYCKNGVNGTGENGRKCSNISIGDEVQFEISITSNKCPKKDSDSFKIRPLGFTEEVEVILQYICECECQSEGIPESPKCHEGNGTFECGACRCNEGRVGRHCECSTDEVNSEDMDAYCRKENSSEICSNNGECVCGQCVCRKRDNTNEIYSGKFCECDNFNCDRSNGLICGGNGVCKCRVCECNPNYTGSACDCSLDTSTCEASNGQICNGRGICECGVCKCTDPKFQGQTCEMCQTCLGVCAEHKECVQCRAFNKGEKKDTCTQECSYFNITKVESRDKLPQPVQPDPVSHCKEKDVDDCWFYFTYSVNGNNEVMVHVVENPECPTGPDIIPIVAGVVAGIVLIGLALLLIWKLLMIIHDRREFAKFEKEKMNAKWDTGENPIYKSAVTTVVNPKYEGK

Question: For “CGGEILDVPST [SEQ ID No. 2, fibronectin peptide described by Wayner, positive control, conjugated to carrier protein, reference compound]”, which “adhesion of Jurkat cells to immobilized peptide conjugate” value is on record?
Answer: bound equally well

Question: For “CGGEGYYGNYGVYA [SEQ ID No. 1, peptide from anti-α4 integrin antibody 21/6 with CGG linker, conjugated to carrier protein]”, which “adhesion of Jurkat cells to immobilized peptide conjugate” value is on record?
Answer: bound equally well

What follows are compounds tested against T2, VLA-4 integrin interaction with VCAM-1 (Homo sapiens, UniProt P05556+P13612) (assay: Jurkat interaction with soluble VCAM-1 (sVCAM-1-IgG), FACS assay). Conditions: not given.
T2 construct: endogenous in cells; host or cells: Jurkat cells (VLA-4)
Format: cell-based
Source text: VCAM-1 was expressed as a soluble fusion protein. The construct expressed the seven extracellular domains of VCAM-1 on the N-terminus, and the human IgG1 heavy chain constant region on the C-terminus. Interaction of the soluble construct with Jurkat cells was monitored by standard FACS analysis, using a fluorescently labeled antibody directed against the construct's human IgG tail as a marker.
The activity of VLA-4 can be regulated. 15/7 is a monoclonal antibody that recognizes an activated conformation of VLA-4 and locks the molecule in the active state, thereby enhancing VLA-4-mediated cell adhesion.
Peptides of different length, and with various amino acid substitutions were synthesized based on the sequence of the CDR3 region of the antibody 21/6 (EGYYGNYGVYA) (SEQ ID No. 4). The peptides were then tested for their ability to inhibit Jurkat interaction with sVCAM-1-IgG in the FACS assay described in Example 6. IC50 values were determined for each peptide using this assay.

T2 sequence (P13612 34-1032): as the sequence (P13612 34-1032) above
T2 sequence (P05556 21-798): as the sequence (P05556 21-798) above

Question: Which IC50 does the source give for `NC(=O)CC[C@@H]1NC(=O)CNC(=O)[C@H](Cc2ccc(O)cc2)NC(=O)[C@H](Cc2ccc(O)cc2)NC(=O)CSC[C@@H](C(=O)O)NC1=O` [SEQ ID No. 52, [Ac]YYGQC] ({CH2CO}-YYGQC-OH; thioether N-5) here?
Answer: ≤ 50 µM

Question: Which IC50 does the source give for SYYENC [SEQ ID No. 124, SYYENC] here?
Answer: ≤ 50 µM

Question: With “Ac-EGYYGNYGGYA [SEQ ID No. 43, [Ac]EGYYGNYGGYA]” as the compound, how does the IC50 read?
Answer: ≤ 50 µM

Question: With `C[C@H](N)C(=O)N[C@@H](Cc1ccc(O)cc1)C(=O)N[C@@H](Cc1ccc(O)cc1)C(=O)N[C@@H](CCC(=O)O)C(=O)N[C@@H](CC(N)=O)C(=O)N[C@@H](CSSC[C@H](NC(=O)[C@H](CC(N)=O)NC(=O)[C@H](CCC(=O)O)NC(=O)[C@H](Cc1ccc(O)cc1)NC(=O)[C@H](Cc1ccc(O)cc1)NC(=O)[C@H](C)N)C(=O)O)C(=O)O` [SEQ ID No. 123, AYYENC AYYENC] (I: H-AYYENC-OH / II: H-AYYENC-OH; disulfide I:6-II:6) as the compound, how does the IC50 read?
Answer: ≤ 50 µM

Question: With `NC(=O)C[C@@H]1NC(=O)[C@H](Cc2ccc(O)cc2)NC(=O)CNC(=O)[C@H](Cc2ccc(O)cc2)NC(=O)[C@H](Cc2ccc(O)cc2)NC(=O)CSC[C@@H](C(=O)O)NC1=O` [SEQ ID No. 62, [Ac]YYGYNC] ({CH2CO}-YYGYNC-OH; thioether N-6) as the compound, how does the IC50 read?
Answer: ≤ 50 µM

Question: `NC(=O)C[C@@H]1NC(=O)[C@H](CCC(=O)O)NC(=O)[C@H](Cc2ccc(O)cc2)NC(=O)[C@H](Cc2ccc(O)cc2)NC(=O)CSC[C@@H](C(=O)O)NC1=O` [SEQ ID No. 60, [Ac]YYENC] ({CH2CO}-YYENC-OH; thioether N-5) was tested. Which IC50 did it give?
Answer: ≤ 50 µM

Question: `CC(C)C[C@H]1NC(=O)CSC[C@@H](C(=O)O)NC(=O)[C@H](CC(N)=O)NC(=O)CNC(=O)[C@H](Cc2ccccc2)NC1=O` [SEQ ID No. 94, [Ac]lFGNC] ({CH2CO}-[dL]FGNC-OH; thioether N-5) was tested. Which IC50 did it give?
Answer: ≤ 50 µM

Question: With “Ac-EGYYGNYGVY [SEQ ID No. 22, [Ac]EGYYGNYGVY]” as the compound, how does the IC50 read?
Answer: ≤ 50 µM

Question: How did the IC50 turn out when “Ac-EGYYGNYGVAA [SEQ ID No. 12, [Ac]EGYYGNYGVAA]” was run?
Answer: ≤ 50 µM

Question: For `C[C@H](N)C(=O)N[C@@H](Cc1ccc(O)cc1)C(=O)N[C@@H](Cc1ccc(O)cc1)C(=O)NCC(=O)N[C@@H](Cc1ccc(O)cc1)C(=O)N[C@@H](CC(N)=O)C(=O)N[C@@H](CSSC[C@H](NC(=O)[C@H](CC(N)=O)NC(=O)[C@H](Cc1ccc(O)cc1)NC(=O)CNC(=O)[C@H](Cc1ccc(O)cc1)NC(=O)[C@H](Cc1ccc(O)cc1)NC(=O)[C@H](C)N)C(=O)O)C(=O)O` [SEQ ID No. 144, AYYGYNC AYYGYNC] (I: H-AYYGYNC-OH / II: H-AYYGYNC-OH; disulfide I:7-II:7), which IC50 is on record?
Answer: ≤ 50 µM

Question: With `NC(=O)C[C@H](NC(=O)[C@H](CCC(=O)O)NC(=O)[C@H](Cc1ccc(O)cc1)NC(=O)[C@H](Cc1ccc(O)cc1)NC(=O)[C@@H](N)CO)C(=O)N[C@@H](CSSC[C@H](NC(=O)[C@H](CC(N)=O)NC(=O)[C@H](CCC(=O)O)NC(=O)[C@H](Cc1ccc(O)cc1)NC(=O)[C@H](Cc1ccc(O)cc1)NC(=O)[C@@H](N)CO)C(=O)O)C(=O)O` [SEQ ID No. 125, SYYENC SYYENC] (I: H-SYYENC-OH / II: H-SYYENC-OH; disulfide I:6-II:6) as the compound, how does the IC50 read?
Answer: ≤ 50 µM

Question: With “Ac-EGYYGAYGVYA [SEQ ID No. 9, [Ac]EGYYGAYGVYA]” as the compound, how does the IC50 read?
Answer: ≤ 50 µM

Question: With STLTMNPVSF [SEQ ID No. 40, STLTMNPVSF] as the compound, how does the IC50 read?
Answer: ≤ 50 µM

Question: How did the IC50 turn out when EGYYGNYGVY [SEQ ID No. 17, EGYYGNYGVY] was run?
Answer: ≤ 50 µM

Question: Which IC50 does the source give for `C[C@H](N)C(=O)N[C@H](Cc1ccc(O)cc1)C(=O)N[C@@H](Cc1ccc(O)cc1)C(=O)N[C@@H](CCC(=O)O)C(=O)N[C@@H](CC(N)=O)C(=O)N[C@@H](CSSC[C@H](NC(=O)[C@H](CC(N)=O)NC(=O)[C@H](CCC(=O)O)NC(=O)[C@H](Cc1ccc(O)cc1)NC(=O)[C@@H](Cc1ccc(O)cc1)NC(=O)[C@H](C)N)C(=O)O)C(=O)O` [SEQ ID No. 154, AyYENC AyYENC] (I: H-A[dY]YENC-OH / II: H-A[dY]YENC-OH; disulfide I:6-II:6) here?
Answer: ≤ 50 µM

Question: For `C[C@H](N)C(=O)N[C@@H](Cc1ccc(O)cc1)C(=O)N[C@@H](Cc1ccccc1)C(=O)NCC(=O)N1CCC[C@H]1C(=O)N[C@@H](CSSC[C@H](NC(=O)[C@@H]1CCCN1C(=O)CNC(=O)[C@H](Cc1ccccc1)NC(=O)[C@H](Cc1ccc(O)cc1)NC(=O)[C@H](C)N)C(=O)O)C(=O)O` [SEQ ID No. 71, AYFGPC AYFGPC] (I: H-AYFGPC-OH / II: H-AYFGPC-OH; disulfide I:6-II:6), which IC50 is on record?
Answer: ≤ 50 µM

Question: With “Ac-EGYYGNYGAAA [SEQ ID No. 41, [Ac]EGYYGNYGAAA]” as the compound, how does the IC50 read?
Answer: ≤ 50 µM

Question: Which IC50 does the source give for `C[C@H](N)C(=O)N[C@H](Cc1ccc(O)cc1)C(=O)N[C@@H](Cc1ccc(O)cc1)C(=O)NCC(=O)N[C@@H](C)C(=O)N[C@@H](CSSC[C@H](NC(=O)[C@H](C)NC(=O)CNC(=O)[C@H](Cc1ccc(O)cc1)NC(=O)[C@@H](Cc1ccc(O)cc1)NC(=O)[C@H](C)N)C(=O)O)C(=O)O` [SEQ ID No. 150, AyYGAC AyYGAC] (I: H-A[dY]YGAC-OH / II: H-A[dY]YGAC-OH; disulfide I:6-II:6) here?
Answer: ≤ 50 µM

Question: Which IC50 does the source give for `NC(=O)C[C@@H]1NC(=O)CNC(=O)[C@H](Cc2ccccc2)NC(=O)CNC(=O)[C@@H](N)CSSC[C@@H](C(=O)O)NC(=O)[C@H](Cc2ccc(O)cc2)NC(=O)[C@H](CO)NC(=O)[C@H](Cc2c[nH]cn2)NC(=O)[C@H](CCC(=O)O)NC1=O` [SEQ ID No. 31, CGFGNEHSYC] (H-CGFGNEHSYC-OH; disulfide 1-10) here?
Answer: ≤ 50 µM

Question: With `C[C@@H]1NC(=O)CNC(=O)[C@H](Cc2ccc(O)cc2)NC(=O)[C@H](Cc2ccc(O)cc2)NC(=O)CSC[C@@H](C(=O)O)NC1=O` [SEQ ID No. 54, [Ac]YYGAC] ({CH2CO}-YYGAC-OH; thioether N-5) as the compound, how does the IC50 read?
Answer: ≤ 50 µM

Question: How did the IC50 turn out when `NC(=O)C[C@@H]1NC(=O)CNC(=O)[C@H](Cc2ccccc2)NC(=O)[C@@H](N)CSSC[C@@H](C(=O)O)NC(=O)[C@H](CO)NC(=O)[C@H](Cc2c[nH]cn2)NC(=O)[C@H](CCC(=O)O)NC1=O` [SEQ ID No. 32, CFGNEHSC] (H-CFGNEHSC-OH; disulfide 1-8) was run?
Answer: ≤ 50 µM

Question: `C[C@H](N)C(=O)N[C@H](Cc1ccc(O)cc1)C(=O)N[C@@H](Cc1ccc(O)cc1)C(=O)N[C@@H](CCC(=O)O)C(=O)N[C@@H](C)C(=O)N[C@@H](CSSC[C@H](NC(=O)[C@H](C)NC(=O)[C@H](CCC(=O)O)NC(=O)[C@H](Cc1ccc(O)cc1)NC(=O)[C@@H](Cc1ccc(O)cc1)NC(=O)[C@H](C)N)C(=O)O)C(=O)O` [SEQ ID No. 140, AyYEAC AyYEAC] (I: H-A[dY]YEAC-OH / II: H-A[dY]YEAC-OH; disulfide I:6-II:6) was tested. Which IC50 did it give?
Answer: ≤ 50 µM

Question: How did the IC50 turn out when AYFGPC [SEQ ID No. 142, AYFGPC] was run?
Answer: ≤ 50 µM

Question: With `CC(C)[C@H]1NC(=O)CSC[C@@H](C(=O)O)NC(=O)[C@H](CC(N)=O)NC(=O)CNC(=O)[C@H](Cc2ccccc2)NC1=O` [SEQ ID No. 96, [Ac]vFGNC] ({CH2CO}-[dV]FGNC-OH; thioether N-5) as the compound, how does the IC50 read?
Answer: ≤ 50 µM

Question: Which IC50 does the source give for “Ac-YYGNYGVYA [SEQ ID No. 45, [Ac]YYGNYGVYA]” here?
Answer: ≤ 50 µM

Question: Which IC50 does the source give for “Ac-EGYYGNYGAYA [SEQ ID No. 42, [Ac]EGYYGNYGAYA]” here?
Answer: ≤ 50 µM

Question: For `C[C@H](N)C(=O)N[C@H](Cc1ccc(O)cc1)C(=O)N[C@@H](Cc1ccc(O)cc1)C(=O)N[C@@H](CCC(=O)O)C(=O)N[C@@H](C)C(=O)N[C@@H](CS)C(=O)O` [SEQ ID No. 133, AyYEAC] (H-A[dY]YEAC-OH), which IC50 is on record?
Answer: ≤ 50 µM

Question: “Ac-EGYYGNAGVAA [SEQ ID No. 15, [Ac]EGYYGNAGVAA]” was tested. Which IC50 did it give?
Answer: ≤ 50 µM

Same assay, conditions: per Example 6: inhibition of Jurkat interaction with sVCAM-1-IgG, FACS, Mn+2 and 15/7 present; read-out: IC50

Question: With “Ac-EGYYGNYGVYA [SEQ ID No. 4, [Ac]EGYYGNYGVYA]” as the compound, how does the IC50 read?
Answer: ≤ 50 µM

Question: How did the IC50 turn out when `CC[C@H](C)[C@@H]1NC(=O)[C@H](CCC(N)=O)NC(=O)[C@H]([C@@H](C)O)NC(=O)[C@H](CCCNC(=N)N)NC(=O)[C@@H](N)CSSC[C@@H](C(=O)O)NC(=O)[C@H](CO)NC(=O)[C@H](CC(=O)O)NC1=O` [SEQ ID No. 35, CRTQIDSC] (H-CRTQIDSC-OH; disulfide 1-8) was run?
Answer: ≤ 50 µM
